# Results as given in ChEMBL document CHEMBL1201862, “PubChem BioAssay data set” (2004).
#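 Grown in 96-well plates, cells were treated for 48 hours with each compound at five concentrations. Insufficient inhibition: endpoint recorded as highest concentration tested. At the GI50, growth is halved.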 Active and inactive are the calls of the source. Cut-off read from the data, not from the text of the source: active = GI50 up to about 1.1 µM and inactive = higher.
# How the values were obtained:
# Experiment in all cases: growth of human tumour cells (NCI), 48 h
# SF-268 = test system: SF-268
# EKVX = test system: EKVX
# 786-0 = test system: 786-0
# BT-549 = test system: BT-549
# MDA-N = test system: MDA-N
# MDA-MB-231 = test system: MDA-MB-231
# UACC-257 = test system: UACC-257
# NCI-H226 = test system: NCI-H226
# OVCAR-3 = test system: OVCAR-3
# KM12 = test system: KM12
# LOX IMVI = test system: LOX IMVI
# TK-10 = test system: TK-10
# M14 = test system: M14
# NCI/ADR-RES = test system: NCI/ADR-RES
# A549 = test system: A549
# HCC 2998 = test system: HCC 2998
# SK-OV-3 = test system: SK-OV-3
# U-251 = test system: U-251
# HCT-116 = test system: HCT-116
# OVCAR-5 = test system: OVCAR-5
# PC-3 = test system: PC-3
# MOLT-4 = test system: MOLT-4
# SN12C = test system: SN12C
# Hs-578T = test system: Hs-578T
# SW-620 = test system: SW-620
# RXF 393 = test system: RXF 393
# RPMI-8226 = test system: RPMI-8226
# SK-MEL-28 = test system: SK-MEL-28
# HOP-92 = test system: HOP-92
# A498 = test system: A498
# HT-29 = test system: HT-29
# MCF7 = test system: MCF7
# SNB-75 = test system: SNB-75
# OVCAR-8 = test system: OVCAR-8
# HCT-15 = test system: HCT-15
# NCI-H460 = test system: NCI-H460
# T47D = test system: T47D
# SF-539 = test system: SF-539
# UACC-62 = test system: UACC-62
# SF-295 = test system: SF-295
# K562 = test system: K562
# MDA-MB-435 = test system: MDA-MB-435
# SR = test system: SR
# OVCAR-4 = test system: OVCAR-4
# HOP-62 = test system: HOP-62
# SK-MEL-5 = test system: SK-MEL-5
# CAKI-1 = test system: CAKI-1
# COLO 205 = test system: COLO 205
# DU-145 = test system: DU-145
# ACHN = test system: ACHN
# SNB-19 = test system: SNB-19
# IGROV-1 = test system: IGROV-1
# SK-MEL-2 = test system: SK-MEL-2
# NCI-H522 = test system: NCI-H522
# HL-60 = test system: HL-60
# Malme-3M = test system: Malme-3M
# UO-31 = test system: UO-31
# NCI-H23 = test system: NCI-H23
# CCRF-CEM = test system: CCRF-CEM
smiles,measurement,setting,value
COc1ccc(C2CCc3nc4nc(N)nc(N)c4cc3C2)cc1 (centres undefined),GI50,SF-268,15.8 µM (inactive)
same,GI50,EKVX,41.2 µM (inactive)
same,GI50,786-0,3.13 µM (inactive)
same,GI50,BT-549,25.5 µM (inactive)
same,GI50,MDA-N,38.3 µM (inactive)
same,GI50,MDA-MB-231,14.8 µM (inactive)
same,GI50,UACC-257,> 100 µM (inactive)
same,GI50,NCI-H226,49.4 µM (inactive)
same,GI50,OVCAR-3,17.3 µM (inactive)
same,GI50,KM12,30.8 µM (inactive)
same,GI50,LOX IMVI,12.1 µM (inactive)
same,GI50,TK-10,8.34 µM (inactive)
same,GI50,M14,86.9 µM (inactive)
same,GI50,NCI/ADR-RES,39.2 µM (inactive)
same,GI50,A549,39.3 µM (inactive)
same,GI50,HCC 2998,31.8 µM (inactive)
same,GI50,SK-OV-3,10.1 µM (inactive)
same,GI50,U-251,9.64 µM (inactive)
same,GI50,HCT-116,26 µM (inactive)
same,GI50,OVCAR-5,> 100 µM (inactive)
same,GI50,PC-3,85.1 µM (inactive)
same,GI50,MOLT-4,22.1 µM (inactive)
same,GI50,SN12C,6.7 µM (inactive)
same,GI50,Hs-578T,15.6 µM (inactive)
same,GI50,SW-620,36.6 µM (inactive)
same,GI50,RXF 393,16.3 µM (inactive)
same,GI50,RPMI-8226,32.6 µM (inactive)
same,GI50,SK-MEL-28,20.8 µM (inactive)
same,GI50,HOP-92,1.2 µM (inactive)
same,GI50,A498,22.2 µM (inactive)
same,GI50,HT-29,29.2 µM (inactive)
same,GI50,MCF7,15.2 µM (inactive)
same,GI50,SNB-75,1.67 µM (inactive)
same,GI50,OVCAR-8,10.2 µM (inactive)
same,GI50,HCT-15,58.9 µM
same,GI50,NCI-H460,40.6 µM (inactive)
same,GI50,T47D,21 µM (inactive)
same,GI50,SF-539,12.4 µM (inactive)
same,GI50,UACC-62,31.5 µM (inactive)
same,GI50,SF-295,16.8 µM (inactive)
same,GI50,K562,16.4 µM (inactive)
same,GI50,MDA-MB-435,27.4 µM (inactive)
same,GI50,SR,24.3 µM (inactive)
same,GI50,OVCAR-4,22.8 µM (inactive)
same,GI50,HOP-62,12.1 µM (inactive)
same,GI50,SK-MEL-5,62.5 µM (inactive)
same,GI50,CAKI-1,54.1 µM (inactive)
same,GI50,COLO 205,40.3 µM (inactive)
same,GI50,DU-145,39.7 µM (inactive)
same,GI50,ACHN,6.64 µM (inactive)
same,GI50,SNB-19,6.65 µM (inactive)
same,GI50,IGROV-1,9.68 µM (inactive)
same,GI50,SK-MEL-2,18.9 µM (inactive)
same,GI50,NCI-H522,25.4 µM (inactive)
same,GI50,HL-60,54 µM (inactive)
same,GI50,Malme-3M,24.5 µM (inactive)
O=C(NO)c1ccc(OCc2ccccc2)cc1,GI50,SF-268,39.7 µM (inactive)
same,GI50,EKVX,20.7 µM (inactive)
same,GI50,786-0,16.9 µM (inactive)
same,GI50,UO-31,22.2 µM (inactive)
same,GI50,BT-549,26.5 µM (inactive)
same,GI50,MDA-N,25.9 µM (inactive)
same,GI50,MDA-MB-231,26.8 µM (inactive)
same,GI50,UACC-257,29.4 µM (inactive)
same,GI50,NCI-H226,> 100 µM (inactive)
same,GI50,OVCAR-3,9.95 µM (inactive)
same,GI50,KM12,25.5 µM (inactive)
same,GI50,LOX IMVI,19.1 µM (inactive)
same,GI50,TK-10,23.7 µM (inactive)
same,GI50,M14,47.6 µM (inactive)
same,GI50,NCI/ADR-RES,4 µM (inactive)
same,GI50,A549,33 µM (inactive)
same,GI50,NCI-H23,14.1 µM (inactive)
same,GI50,HCC 2998,22.6 µM (inactive)
same,GI50,SK-OV-3,37.2 µM (inactive)
same,GI50,U-251,27.5 µM (inactive)
same,GI50,HCT-116,12.1 µM (inactive)
same,GI50,OVCAR-5,27.4 µM (inactive)
same,GI50,PC-3,23.3 µM (inactive)
same,GI50,CCRF-CEM,6.89 µM (inactive)
same,GI50,MOLT-4,15.3 µM (inactive)
same,GI50,SN12C,43.4 µM (inactive)
same,GI50,Hs-578T,65.3 µM (inactive)
same,GI50,SW-620,24.5 µM (inactive)
same,GI50,RXF 393,26.7 µM (inactive)
same,GI50,RPMI-8226,12 µM (inactive)
same,GI50,SK-MEL-28,28.1 µM (inactive)
same,GI50,HOP-92,33.5 µM (inactive)
same,GI50,A498,16.3 µM (inactive)
same,GI50,HT-29,29.2 µM (inactive)
same,GI50,MCF7,55.8 µM (inactive)
same,GI50,SNB-75,29.4 µM (inactive)
same,GI50,OVCAR-8,6.71 µM (inactive)
same,GI50,HCT-15,15 µM
same,GI50,NCI-H460,19.5 µM (inactive)
same,GI50,T47D,11.5 µM (inactive)
same,GI50,SF-539,28.7 µM (inactive)
same,GI50,UACC-62,14.9 µM (inactive)
same,GI50,SF-295,26.2 µM (inactive)
same,GI50,K562,37.7 µM (inactive)
same,GI50,MDA-MB-435,29.2 µM (inactive)
same,GI50,SR,14.1 µM (inactive)
same,GI50,OVCAR-4,15 µM (inactive)
same,GI50,HOP-62,35.1 µM (inactive)
same,GI50,SK-MEL-5,45.6 µM (inactive)
same,GI50,CAKI-1,18.1 µM (inactive)
same,GI50,COLO 205,22.8 µM (inactive)
same,GI50,DU-145,14.3 µM (inactive)
same,GI50,ACHN,22.3 µM (inactive)
same,GI50,SNB-19,33.3 µM (inactive)
same,GI50,IGROV-1,14.3 µM (inactive)
same,GI50,SK-MEL-2,30.3 µM (inactive)
same,GI50,NCI-H522,9.62 µM (inactive)
same,GI50,HL-60,16 µM (inactive)
